Key:
SKOV3 cells [1] = assay: Annexin V apoptosis assay, SKOV3; format: cell-based, human; conditions: dose-dependent, p < 0.005
Procedure: (§1) A2780 and SKOV3 cell lines were treated with control (siltuximab 10 μM) and butein (5, 10, and 25 μM). After 6 h, the cells were fixed with 70% ethanol for cell cycle analysis and stained with propidium iodide (PI). Cell death was analyzed using the FITC Annexin V Apoptosis Detection kit with 7-AAD (Cat.no. 640922, BioLegend, San Diego, CA, USA). Cells were sorted using a FACS Canto II (BD Biosciences, Franklin Lakes, NJ, USA) and cell cycle and apoptosis were analyzed using BD FACS Diva software version 6. 2. Analysis (BD Biosciences, Franklin Lakes, NJ, USA) was performed in triplicate.

[2] = tested on: STAT3 phosphorylation in SKOV3 cells; assay: Western blotting of STAT3 phosphorylation, SKOV3; format: cell-based, human; conditions: relative to IL-6 treated cells
Procedure: After each drug treatment of the cells, the cells were dissolved in 100 μL of radioimmunoprecipitation assay (RIPA) buffer (Thermo Fisher Scientific Inc., Waltham, MA, USA) and centrifuged to separate the supernatant containing protein. Isolated protein concentrations were measured using the Pierce BCA Protein Assay Kit (Thermo Fisher Scientific Inc., Waltham, MA, USA). Aliquots of proteins quantified at […] were boiled at 100 °C in 5× sample buffer, separated on a 12% SDS-polyacrylamide gel and electrophoresed onto polyvinylidene difluoride (PDVF) membranes (Millipore, Billerica, MA, USA). The PDVF membranes were blocked for 1 h at 25 °C with 5% BSA in 1× tris buffered saline containing 0.05% Tween20 (TBST) (Sigma-Aldrich, St. Louis, MO, USA). The membrane was incubated in the primary antibody at 4 °C overnight. PDVF membranes were washed with 1× TBST and incubated with AffiniPure goat anti-rabbit IgG secondary antibody (Jackson Immunoresearch, West Grove, PA, USA) for 1 h at room temperature. After washing again with TBST buffer, enhanced signals were detected using the SuperSignal™ West Femto Maximum Sensitivity Substrate kit (cat.no. 34094, Thermo Scientific, Rockford, IL, USA). The blot was imaged using the ChemiDoc imaging system (Bio-Rad, Herles, CA, USA), and protein expression was quantified with the ImageJ software (v1.8.0).

[3] = tested on: IL-6 signaling in HEK-Blue™ IL-6 cells; assay: IL-6 inhibitory bioassay with HEK-Blue IL-6 cells (SEAP activity); format: cell-based, human; conditions: 10 ng/mL IL-6, 24 h
Procedure: HEK-Blue™ IL-6 cells were obtained from InvivoGen (San Diego, CA, USA). In a 96-well plate, 20 μL butein at various concentrations (0, 3.125, 6.25, 12.5, 25, and 50 μM) were added to the cell suspension (50,000 cells/200 μL). Following this, the recombinant human IL-6 (BioLegend, San Diego, CA, USA) was administered at 10 ng/mL. After 24 h, 20 μL of the IL-6-treated cell suspension was added to 180 μL of QUANTI-Blue™ Solution (JnvivoGen, San Diego, CA, USA) in a new 96-well plate. After 2 h of incubation at 37 °C, the spectrophotometric absorbance between 620 and 655 nm was recorded.

IL-6Rα = target: T1, IL-6Rα (Homo sapiens, UniProt P08887); assay: Surface plasmon resonance, immobilized IL-6Rα; format: binding; conditions: SPR, CM5 chip, steady-state KD
T1 construct: purchased PeproTech
T1 sequence (P08887 20-468): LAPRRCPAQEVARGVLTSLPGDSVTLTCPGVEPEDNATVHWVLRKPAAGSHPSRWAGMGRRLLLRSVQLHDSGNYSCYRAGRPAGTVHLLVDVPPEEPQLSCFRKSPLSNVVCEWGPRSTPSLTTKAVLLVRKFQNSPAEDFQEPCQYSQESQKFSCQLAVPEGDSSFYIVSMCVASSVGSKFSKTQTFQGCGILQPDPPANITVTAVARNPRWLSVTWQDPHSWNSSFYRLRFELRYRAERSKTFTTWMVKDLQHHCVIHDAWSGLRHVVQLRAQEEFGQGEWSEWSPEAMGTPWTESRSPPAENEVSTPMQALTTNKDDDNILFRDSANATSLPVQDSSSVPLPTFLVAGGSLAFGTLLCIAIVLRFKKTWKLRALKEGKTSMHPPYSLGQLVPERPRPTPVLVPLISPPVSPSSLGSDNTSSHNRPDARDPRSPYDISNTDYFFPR
Procedure: (§2) The surface plasmon resonance (SPR) assay was measured using the BIAcore T200 model (GE Healthcare, Chicago, IL, USA) with HBS-EP buffer (1×HBS-EP, GE Healthcare, Chicago, IL, USA) containing 5% dimethyl sulfoxide (DMSO; Sigma-Aldrich, St. Louis, MO, USA). The pH scouting for IL-6 (PeproTech, Rocky Hill, NJ, USA), IL-6Rα (PeproTech, Rocky Hill, NJ, USA), and gp130 (Sino Biological, Beijing, China, or ANRT, Daejeon, Korea) immobilization was performed in 10 mM acetate buffer at pH 4.5. IL-6, IL-6Rα, and gp130 were immobilized on a CM5 chip at 750, 1200, and 2000 response units (RU). Butein was injected into the IL-6, IL-6Rα and gp130-immobilized flow cell at concentrations of 10, 20, 30, 40, 50, 60, 70, 80, 90, and 100 μM with a 25 μL/min flow rate for 150 s and allowed to dissociate for 300 s. Steady-state KD was determined via the T-200 BIAevaluation software (GE Healthcare, Chicago, IL, USA).

IL-6 = target: T2, IL-6 (Homo sapiens, UniProt P05231); assay: Surface plasmon resonance, immobilized IL-6; format: binding; conditions: SPR, CM5 chip, steady-state KD
T2 construct: purchased PeproTech
Procedure: as §2

SKOV3 cells [4] = assay: Matrigel invasion assay, SKOV3; format: cell-based, human; conditions: 48 h
Procedure: Matrigel invasion assays were performed using a BioCoat Matrigel Invasion Chamber (BD Bioscience, Bedford, MA, USA). A2780 and SKOV3 cells (50,000 cells) were placed inside the chamber in serum-free medium containing 500 μL of drugs, and 700 μL of medium containing serum were placed outside the chamber. After incubation for 48 h, the infiltrating cells were stained using the Differential Quick Stain Kit (Cat.no. 26096-50, Electron Microscopy Sciences, Hatfield, PA, USA). Cells were imaged with a Slide Scanner (Aperio CS2, Leica Microsystems, Wetzlar, Germany) and the number of invading cells was quantified using Image J.

SKOV3 cells [5] = assay: Clonogenic formation assay, SKOV3; format: cell-based, human; conditions: compared with control siltuximab-treated cells
Procedure: A2780 and SKOV3 cell lines were seeded at approximately 5000 cells/well in 24-well plates. Butein was added to the cell medium at various concentrations (5, 10, and 25 μM) together with control siltuximab (CTNO328; EUSA Pharma, Inc., Hemel Hempstead, UK) for 12 h. After 2 weeks, the colonies formed were fixed with fixer buffer, stained with crystal violet, and imaged with a ChemiDoc imaging system (Bio-Rad, Herles, CA, USA).

A2780 cells = assay: Annexin V apoptosis assay, A2780; format: cell-based, human; conditions: dose-dependent, p < 0.005
Procedure: as §1

T2 sequence (P05231 30-212): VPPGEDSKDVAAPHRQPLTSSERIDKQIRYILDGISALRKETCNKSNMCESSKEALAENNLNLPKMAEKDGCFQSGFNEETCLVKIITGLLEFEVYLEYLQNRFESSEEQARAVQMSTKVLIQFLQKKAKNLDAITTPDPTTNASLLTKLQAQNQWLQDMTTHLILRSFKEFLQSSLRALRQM

Kd (IL-6Rα): 435 µM
Kd (IL-6): 91.4 µM
Compound: O=C(/C=C/c1ccc(O)c(O)c1)c1ccc(O)cc1O [butein]
Total apoptosis, SKOV3 (SKOV3 cells [1]): significantly increase
Phosphorylation of STAT3, SKOV3 [2]: inhibited in a concentration-dependent manner
Inhibition of SEAP signal of HEK-Blue IL-6 ([3]; 0-50 μM): maximum inhibition
LogIC50, HEK-Blue IL-6 SEAP activity [3]: 1.049±0.524 μM
IC50 ([3]; Homo sapiens, HEK-Blue IL-6): 12.9 ± 0.15 µM
Cell infiltration (invasion), SKOV3 (SKOV3 cells [4]): similarly affected
Clonogenicity, SKOV3 (SKOV3 cells [5]): significantly inhibited
Total apoptosis, A2780 (A2780 cells): significantly increase
